Data: patent publication US20030158250A1, “Agents correcting gene expression regulatory error” (priority 2000, published 2003)

Experiments:
Format in all cases: cell-based
COX2 mRNA = experiment: RT-PCR of COX2 mRNA in monocytes; conditions: human monocytes; for amplification of band ascribed to COX2 mRNA, stimulant alone: LPS or TPA alone, 4 hours, RT-PCR
Experimental: (§1) Four-hundred milliliters of blood was collected from a human normal individual donor. The collected blood was diluted 2-folds with PBS(−), overlaid on Ficoll-paque (manufactured by Pharmacia), and centrifuged at 500×g for 20 minutes. The peripheral blood mononuclear cells (PBMCs) in the intermediate layer was collected with a pipette, and washed with RPMI 1640 medium (manufactured by Bio Whittaker). The collected PBMCs was suspended in a storage solution of 90% FCS (manufactured by JRH Biosciences)/10% dimethyl sulfoxide, and stored in liquid nitrogen. During the experiment, these stored PBMCs were rapidly melted in water bath at 37° C., and washed with RPMI 1640 medium containing 10 μg/ml Dnase (manufactured by Calbiochem). Thereafter, the number of living cells was calculated by trypan blue staining method, and subjected to each experiment.
(§2) PBMCs were suspended in RPMI 1640 medium containing 5% human serum of blood type-AB, 0.1 mM nonessential amino acid, 1 mM sodium pyruvate, 2 mM L-glutamine (hereinabove manufactured by Bio Whittaker), 10 mM HEPES (manufactured by nakalai tesque), and 1% streptomycin-penicillin (manufactured by Gibco BRL) (hereinafter simply referred to as “5HRPMI medium”) so as to have a concentration of 4×10^6 cells/ml. Thereafter, the suspension was spread on a 6-well cell culture plate (manufactured by Falcon) in a volume of 3 ml/well, and the cells were incubated in a wet-type incubator at 37° C. and 5% CO2 for 1.5 hours. After 1.5 hours, the non-adherent cells were removed by suction, and each well was washed with RPMI 1640 medium, and 2 ml of the 5HRPMI medium was added to the wells, to give monocytes.
To the monocytes obtained above was added in each well 8 μl of an aqueous DGE solution, or 8 μl of water as a control, and the cells were incubated in a wet-type incubator at 37° C. and 5% CO2 for 5 hours. Thereafter, with addition of 2 μl of a 1 μg/ml aqueous LPS solution or 2 μl of a 25 μM TPA dimethyl sulfoxide solution to each well, or with addition of neither of these substances thereto, the cells were cultured for additional 4 hours. Thereafter, RNA was prepared from each cell in accordance with the description of the kit using RNeasy Mini Kit (manufactured by QIAGEN, 74104). The group with addition of water alone or the aqueous DGE solution alone to the cells was set as a negative control, and the group with addition of water and the aqueous LPS solution or the aqueous TPA solution to the cells was set as a positive control. […]

[1] = test system: GABA(A) receptor-associated protein (GABArp); experiment: RT-PCR expression level of GABArp gene in monocytes; conditions: human monocytes, 30 PCR cycles
Experimental: as §1, §2
(§3) To the monocytes obtained above was added in each well 8 μl of an aqueous DGE solution, or 8 μl of water as a control, and the cells were incubated in a wet-type incubator at 37° C. and 5% CO2 for 5 hours. Thereafter, with addition of 2 μl of a 1 μg/ml aqueous LPS solution or 2 μl of a 25 μM TPA dimethyl sulfoxide solution to each well, or with addition of neither of these substances thereto, the cells were cultured for additional 4 hours. Thereafter, RNA was prepared from each cell in accordance with the description of the kit using RNeasy Mini Kit (manufactured by QIAGEN, 74104). The group with addition of water alone or the aqueous DGE solution alone to the cells was set as a negative control, and the group with addition of water and the aqueous LPS solution or the aqueous TPA solution to the cells was set as a positive control.
(§4) A liquid mixture having a total volume of 60 μl of 0.5 μg of RNA prepared above, 10 mM Tris-HCl (pH 8.3), 50 mM KCl, 5 mM MgCl2, 1 mM dNTP mixtures, 150 pmol of Random 6 mers, 60 U Ribonuclease Inhibitor (manufactured by Takara Shuzo Co., Ltd., 2310A), and 15 U Reverse Transcriptase XL (AMV) (manufactured by Takara Shuzo Co., Ltd., 2620A) were incubated at 30° C. for 10 minutes and thereafter at 42° C. for 1 hour using a thermal cycler (GeneAmp PCR System 9600, manufactured by Applied Biosystems), and the mixture was heated at 99° C. for 5 minutes to deactivate the enzyme, to give cDNA.
(§5) Oligonucleotide primers for reaction of PCR were designed based on mRNA nucleotide sequence of each gene listed in the following tables, and synthesized in the same manner as above. In Tables 4 and 5, each gene evaluated in this Example, GenBank Accession NO, the name of oligonucleotide primers and SEQ ID NOs of the primers in Sequence Listing were listed. […]

[2] = test system: matrix metalloproteinase-9 (MMP-9); experiment: RT-PCR expression level of MMP-9 gene in monocytes; conditions: human monocytes, 30 PCR cycles
Experimental: as §1, §2, §3, §4, §5

interleukin-6 (IL-6) = experiment: RT-PCR expression level of IL-6 gene in monocytes; conditions: human monocytes, 30 PCR cycles
Experimental: as §1, §2, §3, §4, §5

RANTES mRNA = experiment: RT-PCR of RANTES mRNA in monocytes; conditions: human monocytes
Experimental: as §1
PBMCs were suspended in RPMI 1640 medium containing 5% human serum of blood type-AB, 0.1 mM nonessential amino acid, 1 mM sodium pyruvate, 2 mM L-glutamine (hereinabove manufactured by Bio Whittaker), 10 mM HEPES (manufactured by nakalai tesque), and 1% streptomycin-penicillin (manufactured by Gibco BRL) (hereinafter simply referred to as “5HRPMI medium”) so as to have a concentration of 4×10^6 cells/ml. […]

[3] = substance added alone, Con. (water) +
[4] = substance added alone, Con. (water) −
[5] = DGE 5 hours, then LPS 4 hours, RT-PCR band
[6] = T + D: DGE and TPA, TPA alone +

12-o-tetradecanoylphorbol 13-acetate [TPA, reference compound]
amplification of band ascribed to COX2 mRNA, stimulant alone (COX2 mRNA): induction | expression level of GABArp gene [1, 3]: + | expression level of MMP-9 gene [2, 4]: + | expression level of IL-6 gene (interleukin-6 (IL-6); [4]): +

O=C1C=CC(CO)OC1O [DGE, L-glycero-1,5-epoxy-1αβ,6-dihydroxy-cis-hex-3-en-2-one]
induction of COX2 mRNA by LPS, effect of DGE (COX2 mRNA; [5]): inhibited | induction of COX2 mRNA by TPA, effect of DGE (COX2 mRNA; DGE 5 hours, then TPA 4 hours, RT-PCR band): inhibited | expression level of GABArp gene ([1]; L + D: DGE and LPS, LPS alone +/−): + | expression level of GABArp gene [1, 6]: + | expression level of GABArp gene [1, 3]: + | expression level of MMP-9 gene ([2]; L + D: DGE and LPS, LPS alone −): − | expression level of MMP-9 gene [2, 6]: − | expression level of MMP-9 gene [2, 4]: − | expression level of IL-6 gene (interleukin-6 (IL-6); L + D: DGE and LPS, LPS alone +++): − | expression level of IL-6 gene (interleukin-6 (IL-6); [6]): − | expression level of IL-6 gene (interleukin-6 (IL-6); [4]): − | induction of RANTES mRNA by LPS, effect of DGE (RANTES mRNA; [5]): inhibited

lipopolysaccharide [LPS, reference compound]
amplification of band ascribed to COX2 mRNA, stimulant alone (COX2 mRNA): induction | expression level of GABArp gene [1, 3]: +/− | expression level of MMP-9 gene [2, 4]: − | expression level of IL-6 gene (interleukin-6 (IL-6); [4]): +++ | amplification of band ascribed to RANTES mRNA, stimulant alone (RANTES mRNA; LPS alone, 4 hours, RT-PCR): induction
